This data set can be described thus: Solubility of Pylaklor White Grains S-5 UV indicator in fragrances. To be noted: for Color change of the solution: solution of the named fragrance with 5 wt. % Pylaklor White Grains S-5.
[1] abbreviates: Pylaklor White Grains S-5 at 5 wt. % in the named aldehyde fragrance (Table 6).
Setting [2] is: Pylaklor White Grains S-5 at 5 wt. % in the named fragrance (Table 5).

We go through eight compounds from patent US20180362893A1, “COMPOSITIONS COMPRISING AN ULTRAVIOLET INDICATOR” (Chemia Corporation, priority 2015, published 2018).

Structures are written as SMILES.

Procedure: The solubility of Pylaklor White Grains S-5 UV indicator was evaluated in difference chemical classes of fragrances at a UV indicator concentration of 5 wt. %. The resulting admixtures were evaluated for UV activity by exposure to UV light (400 nm ±5 nm) using a Rayovac VBUV-B light source and visual observation.
The solubility of Pylaklor White Grains S-5 UV indicator was evaluated in three different aldehyde fragrances at a UV indicator concentration of 5 wt. %. The resulting admixtures were evaluated for UV activity by exposure to UV light (400 nm±5 nm) using a Rayovac VBUV-B light source and visual observation.

Take `CCCCCCCCCC=O` [Aldehyde C-10 (decanal), decanal]: the Soluble result under setting [1] is given as “Yes”. `O=C/C=C/c1ccccc1` [Cinnamic aldehyde]: the Soluble entry under setting [1] is listed as “Yes”. Consider `C=CC(C)(O)CCC=C(C)C` (stereo not shown) [Linalool], for which the Soluble entry under setting [2] is “Yes”.

In the case of `CCCCCCC1CCC(=O)O1` (stereo not shown) [Gamma-decalactone], the Soluble result under setting [2] is on record as “Yes”. Consider `CC/C=C\CCO` [Cis-3-hexanol], for which the “Color change of the solution” value is reported as “changed from a straw color to a yellow color”. Moreover, the Soluble entry under setting [2] is on record as “Yes”. `CCOC(C)=O` [Ethyl acetate]: under setting [2], the Soluble result is “Yes”. As for `CCCCCCC(C=O)=Cc1ccccc1` [Hexyl cinnamic aldehyde], the “Color change of the solution” value is “changed color”. The Soluble entry under setting [2] is “Yes”.

Regarding `CCCCCC1C(=O)CCC1CC(=O)OC` (stereo not shown) [Methyl dihydrojasmonate], the Soluble entry under setting [2] is “Yes”.
